Laboratory results published in patent US11694765B2, “Interrogatory cell-based assays for identifying drug-induced toxicity markers” (Berg LLC, priority 2012, dated 2023).

What was measured:
[1] = system: human mitochondrial energy metabolism genes in diabetic cardiomyocytes; experiment: Transcriptional profiling of mitochondrial energy metabolism genes in diabetic cardiomyocytes; assay type: cell-based; settings: diabetic drug plus rescue molecule (T+R) vs untreated (UT)
Experimental: (§1) Human cardiomyocytes were subject to conditions simulating an diabetic environment experienced by the disease-relevant cells in vivo. Specifically, the cells were exposed to hyperglycemic conditions and hyperlipidemia conditions. The hyperglycemic condition was induced by culturing cells in media containing 22 mM glucose. The hyperlipidemia condition was induced by culturing the cells in media containing 1 mM L-carnitine, 0.7 mM Oleic acid and 0.7 mM Linoleic acid. […]
Cell samples from each condition with each perturbation treatment were collected at various times following treatment, including after 6 hours of treatment. For certain conditions, media samples were also collected and analyzed.
iProfiling of changes in total cellular protein expression by quantitative proteomics was performed for cell and media samples collected for each condition and with each “environmental perturbation”, i.e, diabetic drug treatment, Coenzyme Q10 treatment or both, using the techniques described above in the detailed description. […] Following data collection (Ct), the final fold change over control was determined using the δCt method as outlined in manufacturer's protocol. […] Functional assays such as Oxygen consumption rate OCR were measured by employing the Seahorse analyzer essentially as recommended by the manufacturer. […]

[2] = system: GPAT1 and TAZ in hyperglycemia conditioned cardiomyocytes; experiment: Western blotting of GPAT1 and TAZ protein expression in cardiomyocytes; assay type: cell-based, human; settings: diabetic drug plus rescue molecule (T+R)
Experimental: Human cardiomyocytes were subject to conditions simulating an diabetic environment experienced by the disease-relevant cells in vivo. Specifically, the cells were exposed to hyperglycemic conditions and hyperlipidemia conditions. The hyperglycemic condition was induced by culturing cells in media containing 22 mM glucose. The hyperlipidemia condition was induced by culturing the cells in media containing 1 mM L-carnitine, 0.7 mM Oleic acid and 0.7 mM Linoleic acid.
The cell model comprising the above-mentioned cells, wherein the cells were exposed to each condition described above, was additionally “interrogated” by exposing the cells to an “environmental perturbation” by treating with a diabetic drug (T) which is known to cause cardiotoxicity, a rescue molecule (R) or both the diabetic drug and the rescue molecule (T+R). Specifically, the cells were treated with diabetic drug; or treated with rescue molecule Coenzyme Q10 at 0, 50 μM, or 100 μM; or treated with both of the diabetic drug and the rescue molecule Coenzyme Q10.
Protein expression levels of GPAT1 and TAZ for each condition and each treatment were tested with western blotting.

[3] = system: hyperglycemia conditioned cardiomyocytes; experiment: Mitochondrial oxygen consumption rate (Seahorse analyzer); assay type: cell-based, human; settings: diabetic drug plus rescue molecule (T1+R or T2+R)
Experimental: as §1
iProfiling of changes in total cellular protein expression by quantitative proteomics was performed for cell and media samples collected for each condition and with each “environmental perturbation”, i.e, diabetic drug treatment, Coenzyme Q10 treatment or both, using the techniques described above in the detailed description. […] Following data collection (Ct), the final fold change over control was determined using the δCt method as outlined in manufacturer's protocol. […] Functional assays such as Oxygen consumption rate OCR were measured by employing the Seahorse analyzer essentially as recommended by the manufacturer. OCR was recorded by the electrodes in a 7 μl chamber created with the cartridge pushing against the seahorse culture plate. […]

[4] = system: melanoma cell; settings: in the presence of VEGF; cited from earlier work
[5] = system: normal fibroblast; settings: co-administration with VEGF; cited from earlier work

In the case of `COC1=C(OC)C(=O)C(C/C=C(\C)CC/C=C(\C)CC/C=C(\C)CC/C=C(\C)CC/C=C(\C)CC/C=C(\C)CC/C=C(\C)CC/C=C(\C)CC/C=C(\C)CCC=C(C)C)=C(C)C1=O` [Coenzyme Q10], the “transcriptional network and expression of human mitochondrial energy metabolism genes” value [1] was “normalize gene expression and transcription”, the “transcriptional network and expression of human mitochondrial energy metabolism genes” value ([1]; listed as rescue molecule) was “normalizes gene expression” and the “protein expression level of GPAT1” value [2] was “normalized”. The “protein expression level of TAZ” value [2] was “normalized”, the “mitochondrial oxygen consumption rate (OCR)” value [3] was “normalized” and the “mitochondrial oxygen consumption rate (OCR)” value ([3]; listed as rescue molecule) was “normalizes OCR”. The “level of Bcl2” value [4] was “decreased” and the “levels of Bcl2” value [5] was “no effect”.
